Structures can show the parent of a compound that is named as a salt.
What was measured:
[1] = molecular target: human norepinephrine transporter (Homo sapiens, UniProt P23975); assay: Human norepinephrine (hNET) receptor binding, [125I]-RTI-55; conditions: membranes of HEK-293 cells transfected with human norepinephrine transporter cDNA; 50 pM [125I]-RTI-55; IC50 converted by Cheng-Prusoff
Experimental: Cell pastes of human embryonic kidney 293 (HEK-293) cells transfected with a human norepinephrine transporter cDNA were prepared. The cell pastes were resuspended in 400 to 700 mL of Krebs-N-2-hydroxyethylpiperazine-N′-2-ethanesulfonic acid (HEPES) assay buffer (25 mM HEPES, 122 mM NaCl, 3 mM KCl, 1.2 mM MgSO4, 1.3 mM CaCl2, and 11 mM glucose, pH 7.4) with a Polytron homogenizer at setting 7 for 30 seconds. Aliquots of membranes (5 mg/mL protein) were stored in liquid nitrogen until used.
The binding assay was set up in Beckman deep-well polypropylene plates with a total volume of 250 μL containing: test compound (concentration of 10^−5M to 10^−12M), cell membranes, and 50 pM [^125I]-RTI-55 ([^125I]-3 beta-(4-iodophenyl)tropan-2 beta-carboxylic acid methyl ester) (Perkin Elmer, NEX-272; specific activity 2200 Ci/mmol). The reaction was incubated by gentle agitation for 90 minutes at room temperature and was terminated by filtration through Whatman GF/C filter plates using a Brandel 96-well plate harvester. Scintillation fluid (100 μL) was added to each well, and bound [^125I]-RTI-55 was determined using a Wallac Trilux Beta Plate Counter. Test compounds were run in duplicate, and specific binding was defined as the difference between binding in the presence and absence of 10 μM desipramine.
Excel and GraphPad Prism software were used for data calculation and analysis. IC50 values were converted to Ki values using the Cheng-Prusoff equation. The Ki values (nM) for the hNET are reported below in Table 13.

[2] = molecular target: human serotonin transporter (Homo sapiens, UniProt P31645); assay: Human serotonin (hSERT) receptor binding, [125I]-RTI-55; conditions: membranes of HEK-293 cells transfected with human serotonin transporter cDNA, IC50 converted by Cheng-Prusoff
human serotonin transporter, sequence (P31645 whole entry): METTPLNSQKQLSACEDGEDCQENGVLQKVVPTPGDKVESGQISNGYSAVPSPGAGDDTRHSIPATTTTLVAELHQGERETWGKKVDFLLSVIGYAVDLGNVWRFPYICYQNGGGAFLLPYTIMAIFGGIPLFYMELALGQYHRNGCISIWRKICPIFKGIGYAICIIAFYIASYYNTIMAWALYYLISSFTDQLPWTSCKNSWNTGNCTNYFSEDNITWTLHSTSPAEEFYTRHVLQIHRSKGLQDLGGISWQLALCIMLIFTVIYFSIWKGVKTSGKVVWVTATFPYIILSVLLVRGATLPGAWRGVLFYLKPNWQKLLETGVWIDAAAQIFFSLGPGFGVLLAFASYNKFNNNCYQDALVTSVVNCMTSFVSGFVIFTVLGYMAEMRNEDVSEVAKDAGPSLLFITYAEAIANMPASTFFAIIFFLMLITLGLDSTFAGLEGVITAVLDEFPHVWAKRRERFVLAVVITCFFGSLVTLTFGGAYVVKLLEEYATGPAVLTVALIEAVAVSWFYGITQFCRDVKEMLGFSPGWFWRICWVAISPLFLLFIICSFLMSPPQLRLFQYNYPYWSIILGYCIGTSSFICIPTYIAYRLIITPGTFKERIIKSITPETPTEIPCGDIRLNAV
Experimental: Cell pastes of HEK-293 cells transfected with a human serotonin transporter cDNA were prepared. The cell pastes were resuspended in 400 to 700 ml of Krebs-HEPES assay buffer (25 mM HEPES, 122 mM NaCl, 3 mM KCl, 1.2 mM MgSO4, 1.3 mM CaCl2, and 11 mM glucose, pH 7.4) with a Polytron homogenizer at Setting 7 for 30 seconds. Aliquots of membranes (˜2.5 mg/mL protein) were stored in liquid nitrogen until used.
Assays were set up in FlashPlates pre-coated with 0.1% polyethyleneimine (PEI) in a total volume of 250 μL containing: test compound (concentration 10^−5M to 10^−12M), cell membranes, and […] [^125I]-RTI-55 (Perkin Elmer, NEX-272; specific activity 2200 Ci/mmol). The reaction was incubated and gently agitated for 90 minutes at room temperature, and terminated by removal of assay volume. Plates were covered, and bound [^125I]-RTI-55 was determined using a Wallac Trilux Beta Plate Counter. Test compounds were run in duplicate, and specific binding was defined as the difference between binding in the presence and absence of 10 μM citalopram.
Excel and GraphPad Prism software were used for data calculation and analysis. IC50 values were converted to Ki values using the Cheng-Prusoff equation.

human norepinephrine transporter, sequence (P23975 whole entry): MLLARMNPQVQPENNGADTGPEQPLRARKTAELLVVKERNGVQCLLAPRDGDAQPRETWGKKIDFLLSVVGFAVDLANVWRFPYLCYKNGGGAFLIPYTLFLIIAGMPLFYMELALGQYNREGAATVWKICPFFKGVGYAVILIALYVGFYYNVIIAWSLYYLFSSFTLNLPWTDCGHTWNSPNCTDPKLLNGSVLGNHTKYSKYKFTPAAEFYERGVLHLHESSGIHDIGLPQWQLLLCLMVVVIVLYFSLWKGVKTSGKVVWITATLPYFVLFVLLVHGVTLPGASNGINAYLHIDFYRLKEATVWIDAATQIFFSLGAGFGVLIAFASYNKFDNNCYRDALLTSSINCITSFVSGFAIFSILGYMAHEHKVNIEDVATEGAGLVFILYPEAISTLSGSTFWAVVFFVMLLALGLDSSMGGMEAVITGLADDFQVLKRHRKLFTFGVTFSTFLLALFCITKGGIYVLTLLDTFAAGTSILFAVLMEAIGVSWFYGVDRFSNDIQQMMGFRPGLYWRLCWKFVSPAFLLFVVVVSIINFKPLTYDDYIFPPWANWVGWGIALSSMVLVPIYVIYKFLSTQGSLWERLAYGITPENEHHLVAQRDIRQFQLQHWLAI

SMILES	Ki [1] [nM]	Ki [2] [nM]
Fc1ccc(Oc2ncccc2OC(c2ccccc2)C2CCCNC2)cc1 (single isomer, unassigned; stereoisomer a) [Example 88, 2-(4-fluoro-phenoxy)-3-[((R or S)-phenyl)-((S)-piperidin-3-yl)-methoxy]-pyridine fumaric acid, stereoisomer A]	4	150
c1cnc(OC2CCCCC2)c(OC[C@H]2CCCNC2)c1 [Example 81, (S)-2-cyclohexyloxy-3-(piperidin-3-ylmethoxy)-pyridine fumaric acid]	84	6130
COc1cc(C#N)ccc1Oc1ncccc1OC[C@H]1CCCNC1 [Example 62, (S)-3-methoxy-4-[3-(piperidin-3-ylmethoxy)-pyridin-2-yloxy]-benzonitrile fumaric acid]	68	> 10000
CC(C)COc1ccccc1O[C@@H](C)[C@H]1CCCNC1 [Example 109, (S)-3-[(S)-1-(2-isobutoxy-phenoxy)-ethyl]-piperidine]	3	1200
COc1cc(Cl)ccc1Oc1cc(C(F)(F)F)ccc1OC[C@H]1CCCNC1 [Example 35, (S)-3-[2-(4-chloro-2-methoxy-phenoxy)-4-trifluoromethyl-phenoxymethyl]-piperidine fumaric acid]	250	35
Cc1ccc(OC[C@H]2CCCNC2)c(Oc2ccc3c(c2)CCC3)n1 [Example 18, (S)-2-(2,3-dihydro-1H-inden-5-yloxy)-6-methyl-3-(piperidin-3-ylmethoxy)pyridine fumaric acid]	54	620
Cc1ccc(OC[C@H]2CCCNC2)c(Oc2ccccc2C)n1 [Example 5, (S)-2-(2-methyl-phenoxy)-6-methyl-3-(piperidin-3-ylmethoxy)-pyridine fumaric acid]	8.4	2800
CC(C)COc1ncccc1OC(c1ccccc1)[C@H]1CCCNC1 (single isomer, unassigned; stereoisomer a) [Example 92, 2-isobutoxy-3-[((R or S)-phenyl)-((S)-piperidin-3-yl)-methoxy]-pyridine fumaric acid, stereoisomer A]	29	140
CCOc1ccccc1O[C@@H](C)[C@H]1CCCNC1 [Example 107, (S)-3-[(S)-1-(2-ethoxy-phenoxy)-ethyl]-piperidine]	7	2700
c1ccc(Oc2ncccc2OC[C@H]2CCCNC2)cc1 [Example 93, (S)-2-phenoxy-3-(piperidin-3-ylmethoxy)-pyridine fumaric acid]	5	7500
COc1ccc(OC[C@H]2CCCNC2)c(Oc2ccc(Cl)cc2OC)c1 [Example 32, (S)-3-[2-(4-chloro-2-methoxy-phenoxy)-4-methoxy-phenoxymethyl]-piperidine fumaric acid]	46	120
Cc1ccc(OC[C@H]2CCCNC2)c(Oc2cccc(Cl)c2)n1 [Example 15, (S)-2-(3-chloro-phenoxy)-6-methyl-3-(piperidin-3-ylmethoxy)-pyridine fumaric acid]	9.8	287
FC(F)(F)Oc1ccccc1O[C@@H](c1ccccn1)[C@H]1CCCNC1 [Example 116, 2-[(S)-piperidin-3-yl-{(R)-2-trifluoromethoxy-phenoxy}-methyl]-pyridine fumaric acid]	3	3700
Cc1ccc(OC[C@H]2CCCNC2)c(Oc2ccccc2Cl)n1 [Example 7, (S)-2-(2-chloro-phenoxy)-6-methyl-3-(piperidin-3-ylmethoxy)-pyridine fumaric acid]	2.7	350
Fc1ccc(Oc2cc(F)ccc2OC[C@H]2CCCNC2)c(Cl)c1 [Example 39, (S)-3-[2-(2-chloro-4-fluoro-phenoxy)-4-fluoro-phenoxymethyl]-piperidine fumaric acid]	802	110
CC(C)CCOc1ccccc1O[C@@H](C)[C@H]1CCCNC1 [Example 112, (S)-3-{(S)-1-[2-(3-methyl-butoxy)-phenoxy]-ethyl}-piperidine oxalic acid]	16	790

SMILES	Ki [1] [nM]	Ki [2] [nM]
Cc1ccc(OC[C@H]2CCCNC2)c(Oc2c(C)cccc2C)n1 [Example 2, (S)-2-(2,6-dimethyl-phenoxy)-6-methyl-3-(piperidin-3-ylmethoxy)-pyridine fumaric acid]	17	≥ 10000
Cc1ccc(OC[C@H]2CCCNC2)c(Oc2cc(C)c(Cl)cc2C(C)C)n1 [Example 16, (S)-2-[4-chloro-5-methyl-2-(1-methyl-ethyl)-phenoxy]-6-methyl-3-(piperidin-3-ylmethoxy)-pyridine fumaric acid]	2600	1700
CCOc1ccccc1OC[C@H]1CCCNC1 [Example 100, (S)-3-(2-ethoxy-phenoxymethyl)-piperidine fumaric acid]	33	2600
CCOc1ncccc1OC(c1ccccc1)C1CCCNC1 (single isomer, unassigned; stereoisomer a) [Example 90, 2-ethoxy-3-[((R or S)-phenyl)-((S)-piperidin-3-yl)-methoxy]-pyridine fumaric acid, stereoisomer A]	2	71
C[C@H](Oc1ccccc1OCC1CCC1)[C@H]1CCCNC1 [Example 110, (S)-3-[(S)-1-(2-cyclobutylmethoxy-phenoxy)-ethyl]-piperidine oxalic acid]	3	420
Fc1ccc(Oc2ncccc2OC[C@H]2CCCNC2)cc1 [Example 53, (S)-2-(4-fluoro-phenoxy)-3-(piperidin-3-ylmethoxy)-pyridine fumaric acid]	3	7050
Clc1ccc(Oc2ncccc2OC[C@H]2CCCNC2)cc1Cl [Example 64, (S)-2-(3,4-dichloro-phenoxy)-3-(piperidin-3-ylmethoxy)-pyridine fumaric acid]	17	860
CC[C@H](Oc1cccnc1Oc1ccccc1)[C@H]1CCCNC1 [Example 84, (S,S)-2-phenoxy-3-(1-piperidin-3-yl-propoxy)-pyridine fumaric acid]	3	2030
COc1ccc(Oc2nc(C)ccc2OC[C@H]2CCCNC2)c(F)c1 [Example 30, (S)-2-(2-fluoro-4-methoxy-phenoxy)-6-methyl-3-(piperidin-3-ylmethoxy)-pyridine fumaric acid]	15	230
Fc1ccc(Oc2cccc(F)c2OC[C@H]2CCCNC2)cc1F [Example 97, (S)-3-[2-(3,4-difluoro-phenoxy)-6-fluoro-phenoxymethyl]-piperidine fumaric acid]	1	690
CC(C)COc1cccc(F)c1OC[C@H]1CCCNC1 [Example 104, (S)-3-(2-fluoro-6-isobutoxy-phenoxymethyl)-piperidine fumaric acid]	26	
Cc1ccc(OC[C@H]2CCCNC2)c(Oc2c(F)cccc2F)n1 [Example 42, (S)-2-(2,6-difluoro-phenoxy)-6-methyl-3-(piperidin-3-ylmethoxy)-pyridine hydrochloride]	3.6	110
Fc1ccc(Oc2ncccc2OC(c2ccccc2)C2CCCNC2)cc1 (single isomer, unassigned; stereoisomer b) [Example 89, 2-(4-fluoro-phenoxy)-3-[((R or S)-phenyl)-((S)-piperidin-3-yl)-methoxy]-pyridine fumaric acid, stereoisomer B]	43	590
Cc1ccc(OC[C@H]2CCCNC2)c(Oc2ccc(Cl)c(F)c2)n1 [Example 31, (S)-2-(4-chloro-3-fluoro-phenoxy)-6-methyl-3-(piperidin-3-ylmethoxy)-pyridine fumaric acid]	8.4	101
Cc1ccc(OC[C@H]2CCCNC2)c(Oc2ccc(F)cc2C)n1 [Example 1, (S)-2-(4-fluoro-2-methyl-phenoxy)-6-methyl-3-(piperidin-3-ylmethoxy)-pyridine fumaric acid]	28	580
